The results in this text go back to patent US8314092B2, “Substituted [(5H-pyrrolo[2,1-c][1,4]benzodiazepin-11-yl)piperazin-1-yl]-2,2-dimethylpropanoic acid compounds as dual activity H1 inverse agonists/5-HT2A antagonists” (Eli Lilly and Company, priority 2011, dated 2012).

Each structure is given as a SMILES string. Structures can show the parent of a compound that is named as a salt.

Test [1] addresses T1, 5-HT2A receptor (Mus musculus, UniProt P35363).
T1 construct: male C57BL/6J mice (20-25 g, Charles River); from tissue; host or cells: living C57BL/6J mouse (whole animal, behavioural read-out)
The experiment in a line: Inhibition of DOI induced headshake activity. In kind it is in vivo. Conditions: mice, 10 mg/kg PO, 60 minutes pre-treatment, DOI 3 mg/kg. How it is done: (see for example Bartoszyk G D, van Amsterdam C, Böttcher H, Seyfried C A. EMD 281014, a new selective serotonin 5-HT2A receptor antagonist. Eur J Pharmacol. 2003 473: 229-230.) Briefly, male C57BL/6J mice (20-25 g, Charles River) are housed in standard housing conditions (32 mice in a large IVC cage, 07.00 to 19.00 light phase, constant temperature (19-23° C.) and humidity (50%+/−10), ad lib food and water). Mice received either vehicle (0.25% Methyl cellulose), DOI (3 mg/kg in saline) or test compound at 10 mg/kg PO plus DOI (3 mg/kg in saline). Test compounds are individually evaluated in groups of four per experiment with n=4 for each compound, together with vehicle and DOI+vehicle (n=8). After a test compound pre-treatment time of 60 minutes the mice receive either vehicle (saline) or 3 mg/kg DOI dosed subcutaneously, and are then placed into clear perspex observation chambers. […] The data is analyzed using an ANOVA and post-hoc Dunnet's Test. Exemplified compounds are tested essentially as described and are found to inhibit the DOI induced headshake response at greater than 90% at 10 mg/kg. The compound of example 13 is tested essentially as described and is found to inhibit the DOI induced headshake response at 100% at 10 mg/kg.

Test [2] concerns the target T2, H1 receptor (Rattus norvegicus, UniProt P31390).
T2 construct: from tissue; host or cells: living rat; frontal cortex
The experiment in a line: Histamine H1 receptor occupancy in vivo (doxepin tracer). Conditions: oral gavage, 1 hour before tracer, read-out: H1 RO EC50. How it is done: Statistical Methods: Curves for each study are fitted to a 4 parameter logistic function with the bottom fixed at 0% using JMP® version 8.0 (SAS Institute Inc, Cary N.C.) and the absolute ED50 is calculated by the software. Values are given as means, standard errors and 95% confidence intervals. […] Briefly, male Sprague-Dawley rats (Harlan Sprague-Dawley, Indianapolis, Ind.) weighing approximately 230-280 grams are given ad lib access to food and water until the beginning of the 3-hour experimental protocol. 3-[4-(8-Fluorodibenzo[b,f][1,4]oxazepin-1′-yl)piperazin-1-yl]-2,2-dimethylpropanoic acid dihydrochloride is used as a positive control and doxepin is used as a tracer. Test compounds and control are administered by oral gavage in a vehicle comprised of 20% hydroxypropyl beta-cyclodextrin. Doxepin is dissolved in sterile water (100 μg/ml), diluted to 2 μg/ml with saline, and administered in a volume of 0.5 mL/kg intravenously via the lateral tail vein to yield a tracer dose of 1 μg/kg. Rats are administered test compound, 15 mg/kg positive control, or vehicle, followed 1 hour later by an intravenous “tracer” dose of doxepin (N=4). It is at the time of tracer administration that RO is considered to be measured. 40 mins after tracer administration, rats are sacrificed by cervical dislocation. Plasma samples are collected and the frontal cortex is removed. […]

T2 sequence (P31390 whole entry): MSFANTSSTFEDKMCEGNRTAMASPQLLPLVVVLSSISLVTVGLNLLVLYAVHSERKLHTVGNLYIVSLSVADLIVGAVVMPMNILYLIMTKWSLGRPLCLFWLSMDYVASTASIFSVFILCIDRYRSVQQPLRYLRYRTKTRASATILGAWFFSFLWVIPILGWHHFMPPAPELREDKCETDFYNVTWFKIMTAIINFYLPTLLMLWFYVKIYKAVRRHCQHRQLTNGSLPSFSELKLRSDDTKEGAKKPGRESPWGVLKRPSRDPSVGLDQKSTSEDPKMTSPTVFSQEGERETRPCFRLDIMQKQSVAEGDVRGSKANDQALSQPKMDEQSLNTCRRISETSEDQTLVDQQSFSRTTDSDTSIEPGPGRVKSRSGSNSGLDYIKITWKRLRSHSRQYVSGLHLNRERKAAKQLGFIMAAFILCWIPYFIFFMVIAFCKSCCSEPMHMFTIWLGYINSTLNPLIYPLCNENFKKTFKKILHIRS
T1 sequence (P35363 whole entry): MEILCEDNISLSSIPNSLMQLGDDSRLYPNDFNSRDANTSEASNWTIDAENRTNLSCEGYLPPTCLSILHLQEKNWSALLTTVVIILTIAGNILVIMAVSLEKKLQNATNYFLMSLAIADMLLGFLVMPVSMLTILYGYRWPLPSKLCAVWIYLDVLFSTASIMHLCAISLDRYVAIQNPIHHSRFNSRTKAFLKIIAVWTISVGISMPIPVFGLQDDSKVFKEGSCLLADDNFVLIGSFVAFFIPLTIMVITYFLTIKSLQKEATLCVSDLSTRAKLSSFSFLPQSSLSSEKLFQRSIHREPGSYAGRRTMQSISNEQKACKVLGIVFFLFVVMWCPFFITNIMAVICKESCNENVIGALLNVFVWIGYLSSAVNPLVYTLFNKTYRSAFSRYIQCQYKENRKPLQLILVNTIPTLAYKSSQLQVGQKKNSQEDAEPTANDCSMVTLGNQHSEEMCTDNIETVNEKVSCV

Consider `Cc1cc2n(c1)Cc1cc(Cl)ccc1N=C2N1CCN(CC(C)(C)C(=O)O)CC1` [Example 13, 3-[4-(7-Chloro-2-methyl-5H-pyrrolo[2,1-c][1,4]benzodiazepin-11-yl)piperazin-1-yl]-2,2-dimethylpropanoic acid dihydrochloride], for which the “inhibition of DOI induced headshake response” value in test [1] is listed as 100%. In addition, the ED50 in test [2] was determined as 0.3 mg/kg.
